# According to paper PMC8373216, “Development and Preclinical Evaluation of New Inhaled Lipoglycopeptides for the Treatment of Persistent Pulmonary Methicillin-Resistant Staphylococcus aureus Infections” (Antimicrobial Agents and Chemotherapy, 2021):
# Where two headings read alike, the source gives them in different places.
# Legend:
# Clostridium. perfringens = assay: microbe, parasite or virus in culture; format: cell-based
# Enterococcus faecium = assay: Expanded panel broth microdilution MIC/MBC; format: cell-based; conditions: for MIC: Enterococcus faecium
# [1] = tested on: Staphylococcus epidermidis; assay: Expanded panel broth microdilution MIC/MBC; format: cell-based; conditions: for MIC: Staphylococcus epidermidis
# [2] = tested on: Staphylococcus lugdunensis; assay: Expanded panel broth microdilution MIC; format: cell-based
# [3] = tested on: Streptococcus constellatus; assay: Expanded panel broth microdilution MIC; format: cell-based
# Streptococcus mitis = assay: Expanded panel broth microdilution MIC/MBC; format: cell-based; conditions: for MIC: Streptococcus mitis
# [4] = tested on: MRSA ATCC BAA 1556 (USA300) biofilm; assay: MRSA biofilm killing, MBEC assay system, TSB with 1% human plasma
# MSSA ATCC 29213 = assay: In-house broth microdilution MIC screening; format: cell-based; conditions: Staphylococcus aureus, read-out: MIC Value, MSSA ATCC 29213
# [5] = tested on: MRSA ATCC BAA 1556 (USA300); assay: In-house broth microdilution MIC screening; format: cell-based, Staphylococcus aureus; conditions: Staphylococcus aureus, read-out: MIC Value, MRSA ATCC BAA 1556
# Streptococcus agalactiae = assay: Expanded panel broth microdilution MIC/MBC; format: cell-based
# Clostridioides difficile = assay: Expanded panel broth microdilution MIC; format: cell-based
# Streptococcus pyogenes = assay: Expanded panel broth microdilution MIC/MBC; format: cell-based
# Streptococcus anginosus = assay: Expanded panel broth microdilution MIC/MBC; format: cell-based; conditions: for MIC: Streptococcus anginosus
# [6] = tested on: Streptococcus dysgalactiae; assay: Expanded panel broth microdilution MIC/MBC; format: cell-based; conditions: for MIC: Streptococcus dysgalactiae
# [7] = tested on: MRSA ATCC BAA 1556 (USA300) biofilm; assay: Static MRSA biofilm killing, plastic microtiter plate, MEM
# Enterococcus faecalis = assay: Expanded panel broth microdilution MIC/MBC; format: cell-based
# S. aureus = assay: Expanded panel broth microdilution MIC/MBC; conditions: for MIC: Staphylococcus aureus
compound,measurement,setting,value
"CN[C@H](CC(C)C)C(=O)N[C@H]1C(=O)N[C@@H](CC(N)=O)C(=O)N[C@H]2C(=O)N[C@H]3C(=O)N[C@H](C(=O)N[C@H](C(=O)O)c4cc(O)cc(O)c4-c4cc3ccc4O)[C@H](O)c3ccc(c(Cl)c3)Oc3cc2cc(c3O[C@@H]2O[C@H](CO)[C@@H](O)[C@H](O)[C@H]2O[C@H]2C[C@](C)(N)[C@H](O)[C@H](C)O2)Oc2ccc(cc2Cl)[C@H]1O [Vancomycin, vancomycin]",MIC,Clostridium. perfringens,0.25 µg/mL
same,MIC,"Clostridium. perfringens; ATCC13124, read-out: MIC",0.25 µg/mL
same,MIC:MBC,Enterococcus faecium; E. faecium VanB VRE,>2
same,MIC,"Enterococcus faecium; E. faecium MMX 4204, VSE",0.5 µg/mL
same,MIC,"Enterococcus faecium; E. faecium VSE, 1 isolate",0.5 µg/mL
same,MIC,"Enterococcus faecium; VRE, E. faecium MMX 173, VanB VRE",64 µg/mL
same,MIC,"Enterococcus faecium; VRE, E. faecium MMX 851, VanA VRE",128 µg/mL
same,MIC,"Enterococcus faecium; VRE, E. faecium VanA VRE, 1 isolate",128 µg/mL
same,MIC,"Enterococcus faecium; VRE, E. faecium VanB VRE, 1 isolate",64 µg/mL
same,MIC:MBC,"[1]; S. epidermidis MRSE, MBC on one organism",1
same,MIC,"[1]; ATCC49134, S. epidermidis ATCC 49134, MSSE",0.5 µg/mL
same,MIC,"[1]; MRSE, S. epidermidis MMX 762, MRSE",1 µg/mL
same,MIC,"[1]; MRSE, S. epidermidis MMX 5145, MRSE",1 µg/mL
same,MIC,"[1]; MRSE, read-out: MIC (median), S. epidermidis MRSE, 2 isolates",1 µg/mL
same,MIC,"[1]; S. epidermidis MSSE, 1 isolate",0.5 µg/mL
same,MIC,"[2]; S. lugdunensis, 1 isolate",0.25 µg/mL
same,MIC,[2]; Staphylococcus lugdunensis,0.25 µg/mL
same,MIC,"[3]; S. constellatus AGS, 1 isolate",0.25 µg/mL
same,MIC,[3]; Streptococcus constellatus,0.25 µg/mL
same,MIC:MBC,"Streptococcus mitis; S. mitis MGS, MBC on one organism",1
same,MIC,Streptococcus mitis,0.25 µg/mL
same,MIC,Streptococcus mitis; ATCC49456,0.25 µg/mL
same,MIC,Streptococcus mitis; read-out: MIC (median),0.25 µg/mL
same,Maximum reduction in MRSA biofilm titer relative to control,"[4]; MBEC, 512 μg/ml",1.1 log10 CFU/peg
same,Concentrations with statistically significant reduction versus control biofilm,"[4]; MBEC, two-way ANOVA, Bonferroni",≥ 16 µg/mL
same,Reduction in MRSA biofilm titer,"[4]; plasma-supplemented MBEC assay, dose not stated",~1 log10 CFU/peg
same,MIC,MSSA ATCC 29213,1 µg/mL
same,MIC,[5],1 µg/mL
same,MIC,"Streptococcus agalactiae; S. agalactiae MMX 4115, ermR",0.25 µg/mL
same,MIC,"Streptococcus agalactiae; S. agalactiae ermR, 1 isolate",0.25 µg/mL
same,MIC:MBC,"Streptococcus agalactiae; S. agalactiae, MBC on one organism",4
same,MIC,Streptococcus agalactiae; Streptococcus agalactiae,0.25 µg/mL
same,MIC,"Streptococcus agalactiae; Streptococcus agalactiae, ATCC13813",0.25 µg/mL
same,MIC,"Streptococcus agalactiae; Streptococcus agalactiae, read-out: MIC (median)",0.25 µg/mL
same,MIC,"Clostridioides difficile; ATCCBAA1805, C. difficile ATCC BAA-1805, ribo 027",0.5 µg/mL
same,MIC,"Clostridioides difficile; ATCCBAA1870, C. difficile ATCC BAA-1870, NAP1;ribo 027",1 µg/mL
same,MIC,"Clostridioides difficile; C. difficile ATTC 700057, toxAB-",0.25 µg/mL
same,MIC,"Clostridioides difficile; C. difficile NAP1;ribo 027, 1 isolate",1 µg/mL
same,MIC,"Clostridioides difficile; C. difficile ribo 027, 1 isolate",0.5 µg/mL
same,MIC,"Clostridioides difficile; C. difficile toxAB-, 1 isolate",0.25 µg/mL
same,MIC,"Streptococcus pyogenes; S. pyogenes MMX 946, ermR",0.25 µg/mL
same,MIC:MBC,Streptococcus pyogenes; S. pyogenes ermR,1
same,MIC,Streptococcus pyogenes; Streptococcus pyogenes,0.25 µg/mL
same,MIC,"Streptococcus pyogenes; Streptococcus pyogenes, ATCC19615",0.25 µg/mL
same,MIC,"Streptococcus pyogenes; Streptococcus pyogenes, read-out: MIC (median)",0.25 µg/mL
same,MIC:MBC,Streptococcus anginosus; S. anginosus AGS,>8
same,MIC,Streptococcus anginosus,0.5 µg/mL
same,MIC,Streptococcus anginosus; ATCC33397,0.5 µg/mL
same,MIC:MBC,"[6]; S. dysgalactiae, MBC on one organism",>8
same,MIC,[6]; S. dysgalactiae MMX 5121,0.25 µg/mL
same,MIC,[6]; S. dysgalactiae MMX 5123,0.25 µg/mL
same,MIC,[6]; S. dysgalactiae MMX 5124,0.25 µg/mL
same,MIC,"[6]; read-out: MIC (median), S. dysgalactiae, 3 isolates",0.25 µg/mL
same,Reduction in MRSA biofilm titer,[7]; >20 μg/ml dose,3 log10 CFU/ml
same,Reduction in MRSA biofilm titer versus control,[7]; doses 1 to 10 μg/ml,approximately 2 log10 CFU/ml
same,Concentrations with statistically significant reduction versus control biofilm,"[7]; two-way ANOVA, Bonferroni",≥ 22 µg/mL
same,MIC:MBC,"Enterococcus faecalis; E. faecalis VSE, MBC on one organism",>8
same,MIC,"Enterococcus faecalis; E. faecalis VanA VRE, 1 isolate",128 µg/mL
same,MIC,Enterococcus faecalis; Enterococcus faecalis,1 µg/mL
same,MIC,"Enterococcus faecalis; Enterococcus faecalis, ATCC29212",2 µg/mL
same,MIC,"Enterococcus faecalis; Enterococcus faecalis, VRE",128 µg/mL
same,MIC,"Enterococcus faecalis; Enterococcus faecalis, read-out: MIC (median)",1.5 µg/mL
same,MIC:MBC,"S. aureus; S. aureus MRSA, MBC median of n = 5",1
same,MIC:MBC,"S. aureus; S. aureus MSSA, MBC on one organism",1
same,MIC:MBC,"S. aureus; S. aureus VISA, MBC median of n = 2",4
same,MIC (median),"S. aureus; S. aureus VRSA, 12 isolates (JMI Laboratories)",>64 µg/mL
same,MIC:MBC,"S. aureus; S. aureus hVISA, MBC on one organism",1
same,MIC,"S. aureus; ATCC13709 / MSSA, S. aureus ATCC 13709, MSSA",1 µg/mL
same,MIC,"S. aureus; ATCC29213 / MSSA, S. aureus ATCC 29213, MSSA",1 µg/mL
same,MIC,"S. aureus; ATCC43300 / MRSA, S. aureus ATCC 43300, MRSA",1 µg/mL
same,MIC,"S. aureus; ATCCBAA1556|MRSA|USA300, S. aureus ATCC BAA-1556, MRSA, USA300 (expanded panel)",0.5 µg/mL
same,MIC,"S. aureus; ATCCBAA1756|MRSA|NRS384|USA300, S. aureus NRS 384, ATCC BAA-1756, MRSA, USA300",0.5 µg/mL
same,MIC,"S. aureus; MRSA / NRS123 / USA400, S. aureus NRS123, MRSA, USA400",0.5 µg/mL
same,MIC,"S. aureus; MRSA / NRS725 / USA300, S. aureus NRS725, MRSA, USA300",0.5 µg/mL
same,MIC,"S. aureus; MRSA / USA300, S. aureus MMX 3982, MRSA, USA300",0.5 µg/mL
same,MIC,"S. aureus; MRSA, S. aureus MMX 7899, MRSA",0.5 µg/mL
same,MIC,"S. aureus; MRSA, S. aureus MMX 7900, MRSA",0.5 µg/mL
same,MIC,"S. aureus; MRSA, S. aureus MMX 7901, MRSA",0.5 µg/mL
same,MIC,"S. aureus; MRSA, S. aureus MMX 7902, MRSA",0.5 µg/mL
same,MIC,"S. aureus; MRSA, S. aureus MMX 7903, MRSA",0.5 µg/mL
same,MIC,"S. aureus; MRSA, read-out: MIC (median), S. aureus MRSA, 12 isolates",0.5 µg/mL
same,MIC,"S. aureus; MSSA, S. aureus MMX 7907, MSSA",0.5 µg/mL
same,MIC,"S. aureus; MSSA, S. aureus MMX 7908, MSSA",0.5 µg/mL
same,MIC,"S. aureus; MSSA, read-out: MIC (median), S. aureus MSSA, 4 isolates",0.75 µg/mL
same,MIC,"S. aureus; NRS1 / VISA, S. aureus NRS1, VISA, Mu50",4 µg/mL
same,MIC,"S. aureus; NRS2, S. aureus NRS2, hVISA;Mu3",1 µg/mL
same,MIC,"S. aureus; NRS4 / VISA, S. aureus NRS4, VISA",4 µg/mL
same,MIC,"S. aureus; NRS13 / VISA, S. aureus NRS13, VISA",2 µg/mL
same,MIC,"S. aureus; NRS22 / VISA, S. aureus NRS22, VISA",4 µg/mL
same,MIC,"S. aureus; NRS23, S. aureus NRS23, hVISA",2 µg/mL
same,MIC,"S. aureus; NRS52 / VISA, S. aureus NRS52, VISA",1 µg/mL
same,MIC,"S. aureus; VISA, read-out: MIC (median), S. aureus VISA, 5 isolates",4 µg/mL
same,MIC,"S. aureus; VRSA, read-out: MIC (median), S. aureus VRSA, 12 isolates (JMI Laboratories)",> 64 µg/mL
same,MIC,"S. aureus; read-out: MIC (median), S. aureus hVISA, 2 isolates",1.5 µg/mL
